Data on five molecules can be found in publication PMC9574860, “Chemical Toolkit for PARK7: Potent, Selective, and High-Throughput” (Journal of Medicinal Chemistry, 2022).

One experiment concerns DUBs. The experiment in a line: DUB activity profiling in HEK293T cell lysate with general DUB probe Rho-Ub-PA. The settings on record: compound 5 μM 1 h 37 °C, then Rho-Ub-PA 30 min, Figure S5. Format: biochemical. How it is done: Due to the structural similarity of PARK7 inhibitor JYQ-88 and UCHL1 inhibitor 8RK64 and the fact that many cyanimide-containing compounds have been identified as DUB inhibitors,[35],[37] we investigated the inhibitory potential of JYQ-88 and JYQ-92 toward DUBs. After treating the HEK293T cell lysate with JYQ-88 and JYQ-92, along with UCHL1 inhibitors, 6RK73 and 8RK64 as controls,[38] the remaining activity of DUBs was determined using the general DUB probe Rho-Ub-PA (Figure S5).[39]
Figure S5. Fluorescence labeling of DUBs to investigate their remaining activity by Rh-Ub-
PA after the treatment with PARK7 inhibitor JYQ-88 and probe JYQ-92. UCHL1 inhibitors,
6RK73 and 8RK64, were used as a control. HEK293T cell lysate was treated with 5 μM final
MOPS SDS running buffer (Novex, NuPAGE) and visualized by fluorescence scanning on a
Typhoon FLA 9500 (GE Healthcare Life Sciences) using a Rhodamine channel (λex/em
(1 picture or pasted object on this page, not shown here)

Experiment [1] deals with T1, PARK7 (Homo sapiens, UniProt Q99497).
T1 sequence (Q99497 1-189): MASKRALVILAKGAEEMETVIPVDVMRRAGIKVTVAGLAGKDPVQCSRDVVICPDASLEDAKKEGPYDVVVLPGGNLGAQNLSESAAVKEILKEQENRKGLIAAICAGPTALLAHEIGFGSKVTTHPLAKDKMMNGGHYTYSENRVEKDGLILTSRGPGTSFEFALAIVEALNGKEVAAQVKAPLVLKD
The experiment can be described thus: Gel-based competition assay in HEK293T cell lysate with probe JYQ-92. Format: biochemical. Set-up: GST (N, cleaved yes); made in house; host or cells: E. coli BL21(DE3) Rosetta2. The settings on record: fragment 0.1–50 μM 2 h 37 °C, then JYQ-92 1 μM 30 min, Figure 6E. The source says: We next assessed whether we could measure the inhibitory activity of an inhibitor against PARK7 in a cell lysate using JYQ-92 to label the remaining activity of PARK7. […] The disappearance of the labeling band is a measure for inhibition.

The target in experiment [2] is T1, PARK7. The experiment can be described thus: FP assay with Rhodamine110 probe JYQ-107 (IC50 and hit validation). The experiment is classed as binding. Set-up: GST (N, cleaved yes); made in house; host or cells: E. coli BL21(DE3) Rosetta2. Conditions: PARK7 0.2 μM, 1 h preincubation, JYQ-107 20 nM; for inhibition at 12.5 µM: 12.5 µM compound, read-out: FP assay %Inhibiton (12.5 µM); for inhibition at 37.5 µM: 37.5 µM compound, read-out: FP assay %Inhibiton (37.5 µM); for inhibition at 100 µM: 100 µM compound, read-out: FP assay %Inhibiton (100 µM).

Experiment [3] deals with T1, PARK7. The experiment can be described thus: DiFMUAc PARK7 activity assay. Format: biochemical. Set-up: GST (N, cleaved yes); made in house; host or cells: E. coli BL21(DE3) Rosetta2. Conditions: PARK7 0.1 μM, 2 h preincubation, DiFMUAc 300 μM; for inhibition at 12.5 µM: 12.5 µM compound, read-out: DiFMuAc assay %Inhibiton (12.5 µM); for inhibition at 37.5 µM: 37.5 µM compound, read-out: DiFMuAc assay %Inhibiton (37.5 µM); for inhibition at 100 µM: 100 µM compound, read-out: DiFMuAc assay %Inhibiton (100 µM). The protocol:
Compounds were transferred using a Labcyte Echo550 acoustic dispenser to obtain a 12-point serial dilution of 0.001 to 100 μM. Next, PARK7 (15 μL, final concentration of 0.1 μM) was dispensed with a Biotek MultiFlowFX liquid dispenser and incubated for 1 h, followed by dispensing the substrate DiFMUAc (5 μL, final concentration of 300 μM). The fluorescence intensity (FI) signal was monitored with a BMG Labtech PHERAstar plate reader (λex/em 350/450 nm) for 1 h.
The validation was performed in the PBS buffer with a reaction volume of 20 μL per well in triplicate. […] Next, PARK7 (15 μL, final concentration 0.1 μM) was dispensed with a Biotek MultiFlowFX liquid dispenser and incubated for 2 h, followed by dispensing the substrate DiFMUAc (5 μL, final concentration 300 μM). The FI signal was monitored with a BMG Labtech PHERAstar plate reader (λex/em 350/450 nm) for 1 h. The increase of FI signal compared with reference controls was used to calculate the remaining enzyme activity. The inhibition percentage of these 22 compounds was plotted as a heatmap using GraphPad Prism 9.0.1 software. Color gradients indicate inhibition percentage, no inhibiton (white) and full inhibition (blue).

Experiment [4] has as its target T2, UCHL1 (Homo sapiens, UniProt P09936).
T2 sequence (P09936 1-223): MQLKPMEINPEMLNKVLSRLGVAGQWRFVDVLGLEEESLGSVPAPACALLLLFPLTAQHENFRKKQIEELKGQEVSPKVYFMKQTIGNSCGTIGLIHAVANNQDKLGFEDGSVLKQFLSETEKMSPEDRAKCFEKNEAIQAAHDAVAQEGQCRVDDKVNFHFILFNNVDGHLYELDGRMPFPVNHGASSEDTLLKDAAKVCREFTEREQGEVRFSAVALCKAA
The experiment in a line: UCHL1 activity assay (Ub-Rho-Morpholine or Ub-AMC substrate). Format: biochemical. The settings on record: UCHL1 1 nM, 1 h preincubation; Figure 3E; read-out: UCHL1 IC50. The protocol: The assay was performed in a buffer containing 50 mM Tris·HCl, 100 mM NaCl at pH 7.5, 2.0 mM cysteine, 1 mg/mL 3-[(3-cholamidopropyl)dimethylammonio]propanesulfonic acid (CHAPS), and 0.5 mg/mL bovine serum albumin and conducted in a 384-well plate (Corning 3820) with a reaction volume 20 μL in triplicate. The compounds were dissolved in DMSO as 10, 1, and 0.1 mM stock solutions and were transferred to obtain a 12-point serial dilution of 0.05 to 200 μM. Next, UCHL1 (15 μL, final concentration of 1 nM) was dispensed with a Biotek MultiFlowFX liquid dispenser and incubated for 1 h, followed by dispensing the substrate Ub-Rho-Morpholine or Ub-AMC (5 μL, final concentration of 400 nM). The FI signal was monitored with a BMG Labtech PHERAstar plate reader (λex/em 487/535 nm or λex/em 350/450 nm) for 1 h. N-Ethylmaleimide (NEM, 10 mM) was used as a positive control (100% inhibition), and DMSO was used as a negative control (0% inhibition). All samples were normalized to the positive and negative controls and plotted against the inhibitor concentrations (in μM) using the built-in equation “[inhibitor] vs response – variable slope (four parameters), least-squares fit” with constraints “Bottom = 0” and “Top = 100” in GraphPad Prism 9.0.1 software to obtain the IC50 values.

Experiment [5] deals with T2, UCHL1. The experiment in a line: Gel-based competition assay with probe 8RK59, UCHL1 band. Format: biochemical. Conditions: compound 2 μM, 1 h; PARK7 and UCHL1 1 μM each; then 8RK59 2 μM 30 min; Figure 3B. The protocol: To assess the inhibitory potency and selectivity of these compounds toward PARK7 and UCHL1, we performed a gel-based competition assay (Figure 3A).[36] A mixture of equal amounts of PARK7 and UCHL1 (1 μM) was treated with each of the synthesized compounds (2 μM) for 1 h, followed by incubation with fluorescent probe 8RK59 (2 μM) for 30 min. Samples were resolved by SDS-PAGE, and the gel was scanned for fluorescence. Inhibition of PARK7 or UCHL1 is reflected by the disappearance of their corresponding bands (Figure 3B). […] The inhibition potential of JYQ-88 against PARK7 was assessed in a similar assay where PARK7 was incubated with a serial dilution of JYQ-88 before treatment with probe 8RK59 (Figure 3C). A clear inhibition is visible at 0.5 μM, and full inhibition is achieved between 1 and 2 μM. […] The selectivity of JYQ-88 between UCHL1 and PARK7 was further confirmed in a direct competition assay between equal amounts of PARK7 and UCHL1 (Figure 3F). PARK7 inhibition was observed starting from 0.5 μM JYQ-88, whereas inhibition of UCHL1 was only detected at 20 μM. Since JYQ-88 and 8RK64 are enantiomers, we assumed that the interactions with PARK7 should be similar. To investigate how the chiral center influences the selectivity, we solved the crystal structure of the PARK7−JYQ-88 complex with 1.42 Å resolution (Figure 3G, Table S1, PDB 7PA3). The global positioning of the inhibitor in between the two α-helices was similar to that for 8RK64. […] This way, the thiazolo-pyridine part of JYQ-88 is bound in a similar manner as 8RK64 and the earlier observed interactions are largely the same. The formation of the isothiourea moiety, stabilized by the interaction with Glu18, and the interaction between the thiazole amine and the amide NH2 of the Asn76 side chain are still present. However, the interaction between the azidoacetyl carbonyl with the Leu128 backbone carbonyl can no longer be observed due to the rotation of the azidoacetyl moiety. The Lys132 residue also seems to have rotated (compared to Figure 2C).
The assay was performed in Tris buffer as described above.

The test system of another experiment is PARK7 and UCHL1. The experiment in a line: Labeling of a mixture of purified recombinant UCHL1 and PARK7 with probe 8RK59 (SDS-PAGE, fluorescence scanning). Format: binding. Conditions: UCHL1 and PARK7 1 μM each, probe 2 μM, 30 min 37 °C. The protocol:
To determine the labeling efficiency of 8RK59 for both UCHL1 and PARK7, a mixture of equal amounts of purified recombinant UCHL1 and PARK7 (1 μM each) is labeled with 8RK59 (2 μM). […] To gain more insight into the inhibitor binding mode and to guide the design of novel PARK7 inhibitors, the crystal structure of the PARK7–8RK64 complex was solved with 1.21 Å resolution (Figure 2C, Table S1, PDB 7PA2). The structure is obtained as a monomer and compared to its apo structure (PDB 1J42). […] Globally, the inhibitor fits into a groove between two α-helices formed by residues 76–84 and 126–134 (Figure 2C, left panel). The covalent bond between 8RK64 and PARK7 is clearly visible (Figure 2C, middle panel). The cyanimide moiety of the inhibitor reacted to active site Cys106, thereby forming an isothiourea linkage, which is similar to what has been observed for the reaction of cyanamide-based and azanitrile inhibitors with cathepsins.[33],[34] The isothiourea moiety is stabilized by an H-bond between the NH and the carboxylate side chain of the nearby Glu18. Another interaction is found between the thiazole ring amine in the inhibitor and the amide NH2 of the Asn76 side chain. Hydrogen bonding between the carbonyl of the azidoacetyl moiety and the Leu128 backbone carbonyl via a water molecule is also observed. […]

Turning to `N#CN1CC[C@H](C(=O)Nc2ncc(N3CCOCC3)s2)C1` [6RK73, reference compound], in the experiment with DUBs, the “Effect on remaining DUB activity (Rho-Ub-PA labeled bands)” value is given as “disappearance of the UCHL1 band”.

With `CCC(C)c1ccc(NC(=O)CCl)cc1` (stereo not shown) [Z56886389], the “Ability to inhibit PARK7 in a cell lysate” value on PARK7 [1] is “confirmed”. On PARK7 [2], the inhibition at 12.5 µM was 100%, the inhibition at 37.5 µM amounted to 100% and the inhibition at 100 µM was 100%. Further, on PARK7 [3], the inhibition at 12.5 µM worked out at 95.8%, the inhibition at 37.5 µM worked out at 95.2% and the inhibition at 100 µM came to 97.1%.

Take `O=C(O)c1csc(C(=O)CCl)c1` [Z763366298]: the “Ability to inhibit PARK7 in a cell lysate” value on PARK7 [1] was “confirmed”. Further, at PARK7 [2], the inhibition at 12.5 µM turned out to be 100%, the inhibition at 37.5 µM was determined as 100% and the inhibition at 100 µM worked out at 100%. In addition, on PARK7 [3], the inhibition at 12.5 µM is 97.9%, the inhibition at 37.5 µM came to 97.6% and the inhibition at 100 µM was 97.3%.

For orientation: IC50 means the concentration that gives 50% inhibition. In the case of `N#CN1CC[C@H](C(=O)Nc2nc3c(s2)CN(C(=O)CN=[N+]=[N-])CC3)C1` [8RK64, reference compound], the IC50 at UCHL1 [4] was 230 nM. Moreover, the “Inhibition of UCHL1 (disappearance of 8RK59-labeled band)” value on UCHL1 [5] is “fully inhibit”. Moreover, the “Effect on remaining DUB activity (Rho-Ub-PA labeled bands)” value with DUBs is given as “disappearance of the UCHL1 band”.

Regarding `CC1=CC(C)=[N+]2C1=C(CCCCc1cn(CC(=O)N3CCc4nc(NC(=O)[C@H]5CCN(C#N)C5)sc4C3)nn1)c1c(C)cc(C)n1[B-]2(F)F` [8RK59], in the experiment on PARK7 and UCHL1, the “Labeling of PARK7 and UCHL1 by probe” value is listed as “nearly equal extent”.
